{"source": "patent US8324130B2", "about": "“Synergistic active ingredient combinations” (Bayer Cropscience AG, priority 2006, dated 2012)", "assay_type_in_all_cases": "in vivo", "key": {"[1]": {"tested_on": "Aphis gossypii", "test": "Aphis gossypii test (cotton leaves dipped into active compound preparation)", "experimental": "(§1) Solvent: 7 parts by weight of dimethylformamide\n(§2) Emulsifier: 2 parts by weight of alkylaryl polyglycol ether\n(§3) To produce a suitable preparation of active compound, 1 part by weight of active compound is mixed with the stated amounts of solvent and emulsifier, and the concentrate is diluted with emulsifier-containing water to the desired concentration.\nCotton leaves (Gossypium hirsutum) which are heavily infested by the cotton aphid (Aphis gossypii) are treated by being dipped into the preparation of active compound of the desired concentration.\n(§4) After the desired period of time, the kill in % is determined. 100% means that all aphids have been killed; 0% means that none of the aphids have been killed. The kill rates determined are entered into Colby's formula (see page 1)."}, "[2]": {"tested_on": "Myzus persicae", "test": "Myzus persicae test (cabbage leaves dipped into active compound preparation)", "experimental": "as §1, §2, §3\nCabbage leaves (Brassica oleracea) which are heavily infested by the Green peach aphid (Myzus persicae) are treated by being dipped into the preparation of active compound of the desired concentration.\nas §4"}, "[3]": {"tested_on": "Phaedon cochleariae", "test": "Phaedon cochleariae test (cabbage leaves dipped, populated with larvae)", "settings": "200 ppm, larvae on cabbage leaves", "experimental": "as §1, §2, §3\nAfter the desired period of time, the kill in % is determined. 100% means that all beetle larvae have been killed; 0% means that none of the beetle larvae have been killed. The kill rates determined are entered into Colby's formula (see page 1)."}}}
{"smiles": "CO/N=C(/C(=O)OC)c1ccccc1CO/N=C(\\C)c1cccc(C(F)(F)F)c1", "note": "[trifloxystrobin, reference compound]", "values": [{"measurement": "Kill in % after 6^d", "setting": "[1]; 100 ppm", "result": 40, "unit": "%"}]}
{"smiles": "CN(Cc1ccc(Cl)nc1)C1=CC(=O)OC1", "note": "[compound (Ia), 4-[[(6-chloropyridin-3-yl)methyl](methylamino)]furan-2-(5H)-one]", "values": [{"measurement": "Kill in % after 6^d", "setting": "[1]; 0.16 ppm", "result": 40, "unit": "%"}, {"measurement": "Kill in % after 6^d", "setting": "[1]; 0.8 ppm", "result": 70, "unit": "%"}, {"measurement": "Kill in % after 1^d", "setting": "[2]; 0.16 ppm", "result": 0, "unit": "%"}, {"measurement": "Kill in % after 1^d", "setting": "[2]; 0.8 ppm", "result": 40, "unit": "%"}, {"measurement": "Kill in % after 6^d", "setting": "[2]; 0.8 ppm", "result": 75, "unit": "%"}]}
{"smiles": "O=C1C=C(N(Cc2ccc(Cl)nc2)C2CC2)CO1", "note": "[compound (Ib), 4-[[(6-chloropyridin-3-yl)methyl] (cyclopropylamino)]furan-2-(5H)-one]", "values": [{"measurement": "Kill in % after 1^d", "setting": "[1]; 0.8 ppm", "result": 30, "unit": "%"}, {"measurement": "Kill in % after 6^d", "setting": "[1]; 0.8 ppm", "result": 40, "unit": "%"}, {"measurement": "Kill in % after 1^d", "setting": "[2]; 4 ppm", "result": 75, "unit": "%"}, {"measurement": "Kill in % after 3^d", "setting": "[3]", "result": 60, "unit": "%"}]}
{"smiles": "OC(Cc1ccccc1Cl)(Cn1nc[nH]c1=S)C1(Cl)CC1", "note": "(centres unmarked) [prothioconazole, reference compound]", "values": [{"measurement": "Kill in % after 1^d", "setting": "[2]; 100 ppm", "result": 0, "unit": "%"}, {"measurement": "Kill in % after 6^d", "setting": "[2]; 100 ppm", "result": 0, "unit": "%"}]}
{"smiles": "N#Cc1c[nH]cc1-c1cccc2c1OC(F)(F)O2", "note": "[fludioxonil, reference compound]", "values": [{"measurement": "Kill in % after 6^d", "setting": "[1]; 100 ppm", "result": 0, "unit": "%"}, {"measurement": "Kill in % after 1^d", "setting": "[2]; 100 ppm", "result": 0, "unit": "%"}]}
{"smiles": "CCCOC(=O)NCCCN(C)C", "note": "[propamocarb, reference compound]", "values": [{"measurement": "Kill in % after 3^d", "setting": "[3]", "result": 5, "unit": "%"}]}
{"smiles": "COCC(=O)N(c1c(C)cccc1C)C(C)C(=O)OC", "note": "(centres unmarked) [metalaxyl, reference compound]", "values": [{"measurement": "Kill in % after 1^d", "setting": "[1]; 100 ppm", "result": 10, "unit": "%"}, {"measurement": "Kill in % after 1^d", "setting": "[2]; 100 ppm", "result": 0, "unit": "%"}]}
